In US20170027941A1, “Bruton's Tyrosine Kinase Inhibitor Combinations and Uses Thereof” (Pharmacyclics LLC, priority 2015, published 2017):

How the values were obtained:
Format in all cases: cell-based
pAkt = test: Western blot of pAkt in renal cancer cell lines
Source text: (§1) Whole cell lysates in 1× sample buffer (Invitrogen) were electrophoresed on a 4%-12% Bis-Tris gel. After transferring the proteins onto a PVDF membrane, the blot was probed by antibodies, and the signal was detected using the Odyssey imager (LI-COR Biosciences). Paired mouse and rabbit antibodies were used to probe the total protein, and the corresponding phosphorylated proteins. The effect of ibrutinib treatment, with and without EGF stimulation/induction, on various proteins was studied. A one-hour pre-treatment with ibrutinib and a 10-minute stimulation with EGF was conducted. […] As such, ibrutinib ameliorates the effect (i.e., the undesired effects) of mTOR inhibitor alone.
(§2) Cell lysates were prepared from RCC cells which were treated with different concentrations of pazopanib for overnight incubation. Antibodies that correlate to the proteins of interest were used for detection.

pEGFR = test: Western blot of pEGFR in renal cancer cell lines; settings: A498, 769-P, RENCA, ACHN; one-hour pre-treatment, 10-minute EGF stimulation
Source text: as §1

pERK = test: Western blot of pERK in renal cancer cell lines; settings: A498, 769-P, RENCA, ACHN; one-hour pre-treatment, 10-minute EGF stimulation
Source text: as §1, §2

Structure (SMILES)	pAkt (both pAkt T308 and pAkt S473) (pAkt; ACHN cell line, 24 h treatment, FIG. 8)	pAkt (pAkt; A498, 769-P, RENCA, ACHN, one-hour pre-treatment, 10-minute EGF stimulation)	EGF-induced pEGFR (pEGFR)	pERK (pERK)
CO[C@H]1C[C@@H]2CC[C@@H](C)[C@@](O)(O2)C(=O)C(=O)N2CCCC[C@H]2C(=O)O[C@H]([C@H](C)C[C@@H]2CC[C@@H](OCCO)[C@H](OC)C2)CC(=O)[C@H](C)/C=C(\C)[C@@H](O)[C@@H](OC)C(=O)[C@H](C)C[C@H](C)/C=C/C=C/C=C/1C [everolimus]	induced up-regulation of pAkt	–	–	–
C=CC(=O)N1CCC[C@@H](n2nc(-c3ccc(Oc4ccccc4)cc3)c3c(N)ncnc32)C1 [ibrutinib, 1-((R)-3-(4-amino-3-(4-phenoxyphenyl)-1H-pyrazolo[3,4-d]pyrimidin-1-yl)piperidin-1-yl)prop-2-en-1-one]	–	limited impacts	inhibits EGF-induced pEGFR	limited impacts
